pIC50: −log10 of the molar value.
Target: PIK3CD (Human) (UniProt O00329)
Assay: Inhibition of PIK3CD Kinase Activity

PIK3CD (Human), sequence (O00329 whole entry, looked up): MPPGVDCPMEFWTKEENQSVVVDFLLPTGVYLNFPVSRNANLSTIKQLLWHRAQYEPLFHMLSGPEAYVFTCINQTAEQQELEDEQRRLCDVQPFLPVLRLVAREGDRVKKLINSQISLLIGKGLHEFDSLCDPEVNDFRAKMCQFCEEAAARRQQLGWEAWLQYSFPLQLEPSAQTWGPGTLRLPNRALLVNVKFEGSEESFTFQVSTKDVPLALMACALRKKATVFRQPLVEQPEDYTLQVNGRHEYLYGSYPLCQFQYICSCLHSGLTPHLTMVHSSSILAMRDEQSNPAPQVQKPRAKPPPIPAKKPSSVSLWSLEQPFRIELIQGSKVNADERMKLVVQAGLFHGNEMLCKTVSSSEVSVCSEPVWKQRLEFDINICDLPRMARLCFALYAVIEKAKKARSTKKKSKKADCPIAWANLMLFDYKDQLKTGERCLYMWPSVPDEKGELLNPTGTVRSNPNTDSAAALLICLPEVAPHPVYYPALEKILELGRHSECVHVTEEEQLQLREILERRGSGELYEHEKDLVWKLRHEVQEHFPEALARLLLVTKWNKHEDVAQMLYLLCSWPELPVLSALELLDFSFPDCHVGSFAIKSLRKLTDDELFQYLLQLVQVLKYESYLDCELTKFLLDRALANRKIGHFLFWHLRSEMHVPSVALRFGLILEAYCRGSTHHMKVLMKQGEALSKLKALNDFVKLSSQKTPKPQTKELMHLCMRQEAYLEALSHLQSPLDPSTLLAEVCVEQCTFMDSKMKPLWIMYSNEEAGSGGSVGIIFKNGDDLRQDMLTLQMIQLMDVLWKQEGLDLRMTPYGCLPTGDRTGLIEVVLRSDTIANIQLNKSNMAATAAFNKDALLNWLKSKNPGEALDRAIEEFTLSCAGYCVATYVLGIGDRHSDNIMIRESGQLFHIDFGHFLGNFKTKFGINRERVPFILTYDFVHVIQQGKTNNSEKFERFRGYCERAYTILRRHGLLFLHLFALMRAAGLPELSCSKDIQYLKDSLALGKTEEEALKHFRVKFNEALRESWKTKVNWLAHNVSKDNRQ

pIC50, > 6.30:
CCn1c(CN2CCN(CC(N)=O)C(C)(C)C2)nc2c(N3CCOCC3)nc(-c3c(F)ccc4[nH]ccc34)nc21
CCn1c(CN2CCC(C(=O)O)CC2)nc2c(N3CCOCC3)nc(-c3c(F)ccc4[nH]ccc34)nc21
Cn1c(CN2CCN(C(C)(C)C(N)=O)CC2)nc2c(N3CCOCC3)nc(-c3c(F)ccc4[nH]ccc34)nc21
CCn1c(CN2CCC3(CC2)CNC(=O)C3)nc2c(N3CCOCC3)nc(-c3c(F)ccc4[nH]ccc34)nc21
CCn1c(CN2CCN(CC(F)(F)F)CC2)nc2c(N3CCOCC3)nc(-c3c(F)ccc4[nH]ccc34)nc21
CCn1c(CN2CCC(N3CCOCC3)CC2)nc2c(N3CCOCC3)nc(-c3c(F)ccc4[nH]ccc34)nc21
CCn1c(CN2CCC(N3CCCCC3=O)CC2)nc2c(N3CCOCC3)nc(-c3c(F)ccc4[nH]ccc34)nc21
CCn1c(CN2CCN3CCC[C@H]3C2)nc2c(N3CCOCC3)nc(-c3cccc4[nH]ccc34)nc21
CCn1c(CN2CCC(N3CCS(=O)(=O)CC3)CC2)nc2c(N3CCOCC3)nc(-c3c(F)ccc4[nH]ccc34)nc21
CCn1c(CN2CCN(CC(N)=O)[C@@H](C(C)C)C2)nc2c(N3CCOCC3)nc(-c3c(F)ccc4[nH]ccc34)nc21
CCn1c(CN2CCC3(CCNC3=O)CC2)nc2c(N3CCOCC3)nc(-c3c(F)ccc4[nH]ccc34)nc21
CCn1c(CN2CCC(N3CCC3=O)CC2)nc2c(N3CCOCC3)nc(-c3c(F)ccc4[nH]ccc34)nc21
CCn1c(CN2CCC(c3cc[nH]n3)CC2)nc2c(N3CCOCC3)nc(-c3cccc4[nH]ccc34)nc21
CCn1c(CN2CCC(N3CCOC3=O)CC2)nc2c(N3CCOCC3)nc(-c3c(F)ccc4[nH]ccc34)nc21
CCn1c(CN2CCC(C(N)=O)CC2)nc2c(N3CCOCC3)nc(-c3c(F)ccc4[nH]ccc34)nc21
CCn1c(CN2CCC(N3CCCCC3=O)CC2)nc2c(N3CCOCC3)nc(-c3cccc4[nH]ccc34)nc21
CCn1c(CN2C[C@@H](C)N(CC(N)=O)[C@@H](C)C2)nc2c(N3CCOCC3)nc(-c3c(F)ccc4[nH]ccc34)nc21
CCn1c(CN2CCc3ccccc3C2)nc2c(N3CCOCC3)nc(-c3cccc4[nH]ccc34)nc21
CCn1c(CN2CCC(c3cc[nH]n3)CC2)nc2c(N3CCOCC3)nc(-c3c(F)ccc4[nH]ccc34)nc21
CCn1c(CN2CCN3C(=O)COC[C@H]3C2)nc2c(N3CCOCC3)nc(-c3c(F)ccc4[nH]ccc34)nc21
CCn1c(CN2CCC(N3CC(F)C3)CC2)nc2c(N3CCOCC3)nc(-c3cccc4[nH]ccc34)nc21
CCn1c(CN2CCN3CCC[C@H]3C2)nc2c(N3CCOCC3)nc(-c3c(F)ccc4[nH]ccc34)nc21
CC(C)(C(N)=O)N1CCN(Cc2nc3c(N4CCOCC4)nc(-c4c(F)ccc5[nH]ccc45)nc3[nH]2)CC1
CCn1c(CN2CC(N3CCOCC3)C2)nc2c(N3CCOCC3)nc(-c3c(F)ccc4[nH]ccc34)nc21
CCn1c(CN2CC(N(C)C(C)(C)C(N)=O)C2)nc2c(N3CCOCC3)nc(-c3c(F)ccc4[nH]ccc34)nc21
CCn1c(CN2CCC(C(=O)O)(N3CCOCC3)CC2)nc2c(N3CCOCC3)nc(-c3c(F)ccc4[nH]ccc34)nc21
CCn1c(CN2CCC(N3CCC3=O)CC2)nc2c(N3CCOCC3)nc(-c3cccc4[nH]ccc34)nc21
CCn1c(CN2CCN3CCOC[C@H]3C2)nc2c(N3CCOCC3)nc(-c3c(F)ccc4[nH]ccc34)nc21
CCn1c(CN2CCC(n3cccn3)CC2)nc2c(N3CCOCC3)nc(-c3c(F)ccc4[nH]ccc34)nc21
